Like-named read-outs stand apart in the source and are kept apart here.
Experiments:
[1] = molecular target: SHP-2 enzyme (Met1-Leu525) (Homo sapiens (Human), UniProt Q06124); assay: SHP2 inhibition enzymatic assay; type: biochemical; conditions: 0.5 nM SHP-2 activated by 500 nM IRS1 peptide, 75 μM DiFMUP substrate; read-out: SHP2wt-IC50
Procedure, shortened: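 SHP-2 (Met1-Leu525), 0.5 nM, activated with 500 nM IRS1 bis-phosphopeptide, preincubated 30 min with compounds in HEPES pH 7.2 buffer with 5 mM DTT. 75 μM DiFMUP added for 30 min at room temperature, stopped with bpV; fluorescence read. IC50 from four-parameter logistic fit of % inhibition.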

[2] = tested on: ERK phosphorylation in KYSE-520 cells; assay: Phospho-ERK cellular assay; type: cell-based; conditions: KYSE-520 cells, 2 h at 37° C., phospho-ERK1/2 (Thr202/Tyr204) TR-FRET, read-out: PERK IC50
Procedure, shortened: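 TR-FRET read-out of ERK1/2 Thr202/Tyr204 phosphorylation was taken after overnight antibody incubation at room temperature. Before that, KYSE-520 cells were treated 2 h at 37 °C with compound dilutions and lysed 30 min. Percent inhibition relative to vehicle and cell-free wells was fitted four-parametrically to give IC50.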

SHP-2 enzyme (Met1-Leu525), sequence (Q06124 1-525): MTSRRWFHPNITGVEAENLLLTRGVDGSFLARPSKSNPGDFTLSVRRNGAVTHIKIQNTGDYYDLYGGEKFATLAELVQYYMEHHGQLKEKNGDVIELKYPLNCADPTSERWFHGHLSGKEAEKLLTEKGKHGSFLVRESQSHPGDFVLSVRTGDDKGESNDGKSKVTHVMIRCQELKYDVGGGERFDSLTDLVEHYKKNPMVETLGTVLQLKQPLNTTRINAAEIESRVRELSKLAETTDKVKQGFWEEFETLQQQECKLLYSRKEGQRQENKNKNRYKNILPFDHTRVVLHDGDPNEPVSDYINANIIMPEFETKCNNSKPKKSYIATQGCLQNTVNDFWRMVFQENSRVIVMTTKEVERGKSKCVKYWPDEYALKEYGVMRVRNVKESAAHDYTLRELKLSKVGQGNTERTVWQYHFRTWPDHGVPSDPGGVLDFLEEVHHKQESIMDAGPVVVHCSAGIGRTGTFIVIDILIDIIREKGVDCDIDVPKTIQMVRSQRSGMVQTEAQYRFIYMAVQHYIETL

| SMILES | IC50 [1] [nM] | IC50 ([2]; Homo sapiens, KYSE-520, 2 h) [nM] | IC50 [2] [nM] |
| --- | --- | --- | --- |
| NC[C@]1(c2ccccc2F)[C@@H]2CCN(c3cnc4nc(Sc5ccnc(-n6cccn6)c5Cl)ccc4n3)C[C@@H]21 [Example 398, ((1S,6R,7R)-3-(6-((3-chloro-2-(1H-pyrazol-1-yl)pyridin-4-yl)thio)pyrido[2,3-b]pyrazin-2-yl)-7-(2-fluorophenyl)-3-azabicyclo[4.1.0]heptan-7-yl)methanamine] | < 500 | < 1000 | – |
| COc1ccc(-c2n[nH]c3nc(N4CC[C@@H]5[C@H](C4)[C@@]5(CN)c4ccccc4F)cnc23)cc1F [Example 399] | < 500 | – | < 1000 |
| Cn1cc2c(Cl)c(Sc3ccc4nc(N5CC[C@@H]6[C@H](C5)[C@@]6(CN)c5ccccc5F)cnc4n3)ccc2n1 [Example 400, ((1S,6R,7R)-3-(6-((4-chloro-2-methyl-2H-indazol-5-yl)thio)pyrido[2,3-b]pyrazin-2-yl)-7-(2-fluorophenyl)-3-azabicyclo[4.1.0]heptan-7-yl)methanamine] | < 500 | < 1000 | – |
| NC[C@]1(c2ccccc2F)[C@@H]2CCN(c3cnc(Sc4ccnc(N)c4Cl)cn3)C[C@@H]21 [Example 401, 4-((5-((1S,6R,7R)-7-(aminomethyl)-7-(2-fluorophenyl)-3-azabicyclo[4.1.0]heptan-3-yl)pyrazin-2-yl)thio)-3-chloropyridin-2-amine] | < 500 | < 1000 | – |
| NC[C@]1(c2cc(F)ccc2F)[C@@H]2CCN(c3cnc(Sc4ccnc(-n5cccn5)c4Cl)cn3)C[C@@H]21 [Example 402, ((1S,6R,7R)-3-(5-((3-chloro-2-(1H-pyrazol-1-yl)pyridin-4-yl)thio)pyrazin-2-yl)-7-(2,5-difluorophenyl)-3-azabicyclo[4.1.0]heptan-7-yl)methanamine] | < 500 | < 1000 | – |
| NCC1(c2ccccc2F)[C@@H]2CCN(c3cnc(Sc4ccnc(-n5cccn5)c4Cl)cn3)CC[C@@H]21 (stereo partly drawn) [Example 403, ((1R,7S)-4-(5-((3-chloro-2-(1H-pyrazol-1-yl)pyridin-4-yl)thio)pyrazin-2-yl)-8-(2-fluorophenyl)-4-azabicyclo[5.1.0]octan-8-yl)methanamine] | < 500 | > 5000 | – |
| Cn1cc2c(Cl)c(-c3n[nH]c4nc(N5CC[C@@H]6[C@H](CC5)C6(CN)c5ccccc5F)cnc34)ccc2n1 (stereo partly drawn) [Example 404, ((1R,7S)-4-(3-(4-chloro-2-methyl-2H-indazol-5-yl)-1H-pyrazolo[3,4-b]pyrazin-6-yl)-8-(2-fluorophenyl)-4-azabicyclo[5.1.0]octan-8-yl)methanamine] | < 500 | < 1000 | – |
| NC[C@]1(c2ccccc2F)[C@@H]2CCN(c3cnc4c(-c5ccc6[nH]ccc6c5Cl)n[nH]c4n3)C[C@@H]21 [Example 405, ((1S,6R,7R)-3-(3-(4-chloro-1H-indol-5-yl)-1H-pyrazolo[3,4-b]pyrazin-6-yl)-7-(2-fluorophenyl)-3-azabicyclo[4.1.0]heptan-7-yl)methanamine] | < 500 | < 1000 | – |
| NC[C@]1(c2ccccc2F)[C@@H]2CCN(c3cnc4nc(N5CCCc6ncccc65)ccc4n3)C[C@@H]21 [Example 406, ((1S,6R,7R)-3-(6-(3,4-dihydro-1,5-naphthyridin-1(2H)-yl)pyrido[2,3-b]pyrazin-2-yl)-7-(2-fluorophenyl)-3-azabicyclo[4.1.0]heptan-7-yl)methanamine] | < 500 | < 1000 | – |
| NC[C@]1(c2ccccc2F)[C@@H]2CCN(c3cnc4nc(Sc5ccncc5)ccc4n3)C[C@@H]21 [Example 407, ((1S,6R,7R)-7-(2-fluorophenyl)-3-(6-(pyridin-4-ylthio)pyrido[2,3-b]pyrazin-2-yl)-3-azabicyclo[4.1.0]heptan-7-yl)methanamine] | < 500 | < 1000 | – |
| NC[C@]1(c2ccccc2F)[C@@H]2CCN(c3cc(=O)n4cc(-c5cccc(Cl)c5Cl)ccc4n3)C[C@@H]21 [Example 408, 2-((1S,6R,7R)-7-(aminomethyl)-7-(2-fluorophenyl)-3-azabicyclo[4.1.0]heptan-3-yl)-7-(2,3-dichlorophenyl)-4H-pyrido[1,2-a]pyrimidin-4-one] | < 500 | > 5000 | – |
| NC[C@]1(c2ccccc2F)[C@@H]2CCN(c3cnc4nc(Oc5ccc(F)cc5)ccc4n3)C[C@@H]21 [Example 409, ((1S,6R,7R)-3-(6-(4-fluorophenoxy)pyrido[2,3-b]pyrazin-2-yl)-7-(2-fluorophenyl)-3-azabicyclo[4.1.0]heptan-7-yl)methanamine] | < 500 | < 1000 | – |
| NC[C@]1(c2ccccc2F)[C@@H]2CCN(c3cc(=O)n4cc(Sc5ccnc(N)c5Cl)ccc4n3)C[C@@H]21 [Example 410, 7-((2-amino-3-chloropyridin-4-yl)thio)-2-((1S,6R,7R)-7-(aminomethyl)-7-(2-fluorophenyl)-3-azabicyclo[4.1.0]heptan-3-yl)-4H-pyrido[1,2-a]pyrimidin-4-one] | 500 to 3000 | > 5000 | – |
| Cc1nc(N2CC[C@@H]3[C@H](C2)[C@@]3(CN)c2cc(F)ccc2F)cc(=O)n1-c1cccc(Cl)c1Cl [Example 411, 6-((1S,6R,7R)-7-(aminomethyl)-7-(2,5-difluorophenyl)-3-azabicyclo[4.1.0]heptan-3-yl)-3-(2,3-dichlorophenyl)-2-methylpyrimidin-4(3H)-one] | > 3000 | – | > 5000 |
| Cc1nc(N2CC[C@@H]3[C@H](C2)[C@@]3(CN)c2cc(F)ccc2F)cc(=O)n1-c1cccc(Cl)c1Cl [Example 412, 6-((1S,6R,7R)-7-(aminomethyl)-7-(2,5-difluorophenyl)-3-azabicyclo[4.1.0]heptan-3-yl)-3-(2,3-dichlorophenyl)-2-methylpyrimidin-4(3H)-one] | < 500 | – | < 1000 |
| NC[C@]1(c2ccccc2F)[C@@H]2CCN(c3cnc4c(-c5ccc6c(cnn6C6CC6)c5Cl)n[nH]c4n3)C[C@@H]21 [Example 413] | < 500 | – | < 1000 |
| NC[C@]1(c2cc(F)ccc2F)[C@@H]2CCN(c3cnc(Sc4ccnc(N)c4Cl)c(N)n3)C[C@@H]21 [Example 414, 3-((2-amino-3-chloropyridin-4-yl)thio)-6-((1S,6R,7R)-7-(aminomethyl)-7-(2,5-difluorophenyl)-3-azabicyclo[4.1.0]heptan-3-yl)pyrazin-2-amine] | < 500 | < 1000 | – |
| Cn1cc2cc(-c3ccc4nc(N5CC[C@@H]6[C@H](C5)[C@@]6(CN)c5ccccc5F)cnc4n3)ccc2n1 [Example 415, ((1S,6R,7R)-7-(2-fluorophenyl)-3-(6-(2-methyl-2H-indazol-5-yl)pyrido[2,3-b]pyrazin-2-yl)-3-azabicyclo[4.1.0]heptan-7-yl)methanamine] | < 500 | < 1000 | – |
| NC[C@]1(c2ccccc2F)[C@@H]2CCN(c3nccn4c(-c5cccc(Cl)c5Cl)ncc34)C[C@@H]21 [Example 416, ((1S,6R,7R)-3-(3-(2,3-dichlorophenyl)imidazo[1,5-a]pyrazin-8-yl)-7-(2-fluorophenyl)-3-azabicyclo[4.1.0]heptan-7-yl)methanamine] | < 500 | > 5000 | – |
| NC[C@]1(c2ccccc2F)[C@@H]2CCN(c3cnc4c(-c5ccc6c(c5)ncn6C(F)F)n[nH]c4n3)C[C@@H]21 [Example 418] | < 500 | – | < 1000 |
| Cc1nccc(Sc2ccc3nc(N4CC[C@@H]5[C@H](C4)[C@@]5(CN)c4ccccc4F)cnc3n2)c1F [Example 419, ((1S,6R,7R)-3-(6-((3-fluoro-2-methylpyridin-4-yl)thio)pyrido[2,3-b]pyrazin-2-yl)-7-(2-fluorophenyl)-3-azabicyclo[4.1.0]heptan-7-yl)methanamine] | < 500 | < 1000 | – |
| NC[C@]1(c2ccccc2F)[C@@H]2CCN(c3cnc4c(-c5ccc6nn(C7CC7)cc6c5Cl)n[nH]c4n3)C[C@@H]21 [Example 420] | < 500 | – | < 1000 |
| NC[C@]1(c2ccccc2F)[C@@H]2CCN(c3cnc(Sc4ccc(C(N)=O)cc4Cl)cn3)C[C@@H]21 [Example 421, 4-((5-((1S,6R,7R)-7-(aminomethyl)-7-(2-fluorophenyl)-3-azabicyclo[4.1.0]heptan-3-yl)pyrazin-2-yl)thio)-3-chlorobenzamide] | < 500 | < 1000 | – |
| NC[C@]1(c2ccccc2F)[C@@H]2CCN(c3cnc(Sc4cccc5ncccc45)cn3)C[C@@H]21 [Example 422, ((1S,6R,7R)-7-(2-fluorophenyl)-3-(5-(quinolin-5-ylthio)pyrazin-2-yl)-3-azabicyclo[4.1.0]heptan-7-yl)methanamine] | < 500 | < 1000 | – |
| Cc1nccc(Sc2cnc(N3CC[C@@H]4[C@H](C3)[C@@]4(CN)c3ccccc3F)cn2)c1F [Example 423, ((1S,6R,7R)-3-(5-((3-fluoro-2-methylpyridin-4-yl)thio)pyrazin-2-yl)-7-(2-fluorophenyl)-3-azabicyclo[4.1.0]heptan-7-yl)methanamine] | < 500 | > 5000 | – |
| Cc1nccc(Sc2cnc(N3CC[C@@H]4[C@H](C3)[C@@]4(CN)c3cc(F)ccc3F)cn2)c1F [Example 424, ((1S,6R,7R)-7-(2,5-difluorophenyl)-3-(5-((3-fluoro-2-methylpyridin-4-yl)thio)pyrazin-2-yl)-3-azabicyclo[4.1.0]heptan-7-yl)methanamine] | < 500 | < 1000 | – |

Source: US20240109900A1, “AZABICYCLIC SHP2 INHIBITORS” (IRBM S.P.A., priority 2021, published 2024)
